{"source": "patent US11339175B2", "about": "“Thiol-based fluorescent probe for reactive species” (The Board of Trustees of the University of Illinois, priority 2018, dated 2022)", "key": {"[1]": {"test": "Stability in aqueous media: background fluorescence turn-on with vehicle control", "assay_type": "physicochemical", "conditions": "PBS", "description": "(§1) FIG. 4. The normalized fluorescence turn-on response of NitroxylBlue-1, -2, and -3 treated with a vehicle control and incubated in PBS at 37° C. are shown in black. The normalized fluorescence turn-on response of NitroxylBlue-1, -2, and -3 treated with 100 μM Angeli's salt are shown in green. All data was taken 10 minutes after treatment. Statistical significance measured with respect to the corresponding control. *, p<0.05; **, p<0.01. (n=3).\nFIG. 5. The normalized fluorescence turn-on response of S-methyl NitroxylBlue treated with vehicle control (black) or Angeli's salt (100 μM) and incubated in PBS at 25° C. All data was taken 15 minutes after treatment."}, "[2]": {"test": "Fluorescence turn-on response to HNO (Angeli's salt) in vitro", "description": "(§2) FIG. 2. a) Fluorescence spectra of NitroxylFluor (2 μM) upon addition of AS (100 μM). b) Fluorescence kinetic trace of NitroxylFluor upon addition of 1 mM Angeli's salt, arrow indicates time of addition. c) Response of NitroxylFluor to various reactive oxygen, sulfur, and nitrogen species at concentrations of 100 μM (GSH was tested at 1 mM). Measurements were taken 15 minutes into treatment. d) Competition assays against various thiols. Control indicates no addition of Angeli's salt. Statistics are compared to the control. *, p<0.05; ***, p<0.001; p<0.0001. (n=3).\nas §1\nAngeli's salt was stored at −20° C. Stocks of Angeli's salt were added as a 10 mM solution in 10 mM KOH (for stability). Hydrogen peroxide was added as a 10 mM stock solution prepared by diluting 30% hydrogen peroxide in deionized water. Superoxide was added as a 1 mM stock solution of potassium superoxide in DMSO (for stability). […]"}, "[3]": {"conditions": "reported value; cited from earlier work"}, "[4]": {"test": "Thiol pKa by UV/vis absorbance at 230 nm", "assay_type": "physicochemical", "conditions": "Britton-Robinson Universal Buffer", "source_text": "Assay was completed by measuring the absorbance at 230 nm as described by Tajc et al. (J Am Chem Soc 2004, 126, 10508). Each reading was taken in triplicate and averaged in the respective pH Britton-Robinson Universal Buffer."}, "[5]": {"test": "Selectivity against reactive oxygen, sulfur and nitrogen species", "description": "as §2\nAngeli's salt was stored at −20° C. Stocks of Angeli's salt were added as a 10 mM solution in 10 mM KOH (for stability). […]\nHydroxyl radical was prepared by first preparing a 10 mM solution of Mohr's Salt (Fe(NH4)2(SO4)2.6H2O in 0.1 M HCl which was degassed by bubbling nitrogen gas for 20 minutes through the solution. A solution of the probe was made in buffer and degassed and the initial reading was taken. 10 μL of 10 mM Hydrogen Peroxide and Mohr's salt solution giving a final volume of 1 mL (100 μM hydroxyl radical) were added and allowed to incubate at 37° C. for the duration of the selectivity assay with a septum on the cuvette. Iron(II) was prepared via the same procedure as hydroxyl radical only hydrogen peroxide was not added. […]"}, "[6]": {"test": "Competition assays against thiols for HNO", "conditions": "10 μM probe, Angeli's salt 200 μM", "description": "as §2, with “Statistics are compared to the control. *, p<0.05; ***, p<0.001; p<0.0001.” left out\nIn these experiments, 10 μM solutions of NitroxylFluor and various thiols such as L-cysteine (100 μM), N-acetyl-L-cysteine (100 μM), and GSH (1 mM) was treated with Angeli's salt (200 μM) (FIG. 2d)."}, "MDA-MB-231 cells [7]": {"system": "MDA-MB-231 cells", "test": "Confocal imaging of HNO in living cells", "assay_type": "cell-based, human", "description": "FIG. 3. Confocal microscopy images acquired by irradiation of MDA-MB-231 cells treated with 0 μM (vehicle control), 250 μM, 500 μM, 1000 μM Angeli's salt for 15 mins at 25° C. with a 488 nm laser. Images taken through a 40× oil immersion objective. Scale bar represents 20 μm. b) Quantification of imaging data. *, p<0.05; ***, p<0.001; p<0.0001.\nFIG. 8. Representative time course imaging of MDA-MB-231 cells stained with 4 μM NitroxylFluor for 15 minutes followed by replacement with fresh PBS with no probe. Angeli's salt (200 μM) was added 5 minutes after PBS was replaced. Images were taken through a 40× oil immersion objective at 0, 10, and 20 mins after AS addition at 25° C. via irradiation with a 488 nm laser. Scale bar represents 20 μm.\nMDA-MB-231 adenocarcinoma cells were acquired from Prof. David J. Shapiro (Biochemistry, UIUC). Cells were cultured in phenol-red free Dulbecco's modified eagle medium (DMEM, Corning) supplemented with 10% fetal bovine serum (FBS, Sigma Aldrich), and 1% penicillin/streptomycin (Corning). Cells were incubated at 37° C. with 5% CO2. Experiments were performed in 8-well chambered cover glasses (Lab-Tek, Thermo Scientific).\nAn 8-well chambered cover glass was seeded with 0.4 mL of the above-mentioned cells at a density of 200,000 cells/mL. Cells were imaged at roughly 80% confluency (24 hours after seeding). Media was removed from each well and cells were washed with 200 μL PBS. The PBS was removed from the wells and replaced with 198 μL. 2 μL of 200 μM NitroxylFluor in PBS was added and gently stirred before being allowed to incubate at 37° C. with 5% CO2 for 15 minutes. PBS was then removed from the wells and replaced with 195 μL, 190 μL, or 180 μL PBS. The remaining volume to 200 μL was filled with 10 mM Angeli's salt in 10 mM KOH (or 10 mM KOH in the vehicle control) to give final concentrations of 0.250 mM, 0.500 mM, or 1 mM Angeli's salt. […] 3-5 images of each well were taken and their mean fluorescence (as reported by ImageJ) was averaged to give an average value for each well. […]"}, "MDA-MB-231 cells [8]": {"system": "MDA-MB-231 cells", "test": "MTT cytotoxicity assay", "assay_type": "cell-based, human", "description": "FIG. 9. MTT assay to determine the cytotoxicity of NitroxylFluor at 4 μM over 3, 6, and 24 hours. Detailed protocol available on page 3 of this supporting information document.\nA 96-well plate was seeded with 20,000 cells per well (200 μL of 150,000 cells/mL) and incubated at 37° C. with 5% CO2 for 24 h (˜70% confluent). […] After 3, 6, and 24 h the media was removed and replaced with […] 20:1 mixture of FBS-free DMEM and (3-(4,5-dimethylthiazol-2-yl)-2,5-diphenyl-tetrazolium bromide (MTT, 5 mg/mL stock in PBS). The cells were incubated for 4 h under the same conditions and then the medium was removed and replaced with DMSO ([…]). The absorbance of each well was recorded at 555 nm on a microplate reader. Viability was calculated by the absorbance relative to the vehicle control. Results pictured in FIG. 7."}}, "data": [{"smiles": "CSC(C)(C)C(=O)Oc1ccc2c(C)cc(=O)oc2c1", "note": "[S-Methyl NitroxylBlue-2, reference compound]", "values": [{"measurement": "hydrolysis after incubation in aqueous media", "setting": "[1]; 25° C., 15 minutes", "value": "No hydrolysis was observed"}]}, {"smiles": "Cc1cc(=O)oc2cc(OC(=O)C(C)(C)S)ccc12", "note": "[NB-2]", "values": [{"measurement": "fluorescence turn-on response with Angeli's salt", "setting": "[2]; 100 μM Angeli's salt, PBS, 37° C., 10 minutes after treatment", "value": 3.5, "unit": "fold"}, {"measurement": "background fluorescence turn-on (hydrolysis / alpha-thiolactonization)", "setting": "[1]; vehicle control, 37° C., after 10 minutes", "value": 1.6, "unit": "fold"}]}, {"smiles": "N[C@@H](CCC(=O)N[C@@H](CS)C(=O)NCC(=O)O)C(=O)O", "note": "[GSH, glutathione]", "values": [{"measurement": "reported pKa", "setting": "[3]", "value": 9.42}]}, {"smiles": "COC(=O)C(C)(C)S", "note": "[compound 16, Methyl 2-mercapto-2-methylpropanoate]", "values": [{"measurement": "pKa", "setting": "[4]", "value": 8.01}]}, {"smiles": "CC(C)(S)C(=O)Oc1c(Cl)cc2c(c1Cl)Oc1cc(O)ccc1C21OCc2ccccc21", "note": "(stereo not shown) [NitroxylFluor]", "values": [{"measurement": "fluorescent turn-on response on reaction with HNO", "setting": "[2]; NitroxylFluor 2 μM, Angeli's salt 100 μM, in a matter of seconds", "value": 16, "unit": "fold"}, {"measurement": "change in fluorescence with reactive sulfur and nitrogen species", "setting": "[5]; e.g. H2S, NO, 100 μM, 15-minute incubation at 37° C.", "value": "no change in fluorescence"}, {"measurement": "cross-reactivity with oxidants", "setting": "[5]; oxidants incl. H2O2, 100 μM, 15 minutes", "value": "not observed"}, {"measurement": "fluorescent turn-on response in presence of GSH", "setting": "[6]; GSH 1 mM", "value": 3.9, "unit": "fold"}, {"measurement": "fluorescence increase in competition with L-cysteine", "setting": "[6]; L-cysteine 100 μM", "value": 16.2, "unit": "fold"}, {"measurement": "fluorescence enhancement in competition with N-acetyl-L-cysteine", "setting": "[6]; N-acetyl-L-cysteine 100 μM", "value": 9.8, "unit": "fold"}, {"measurement": "fluorescence enhancement at lowest Angeli's salt concentration", "setting": "MDA-MB-231 cells [7]; 250 μM Angeli's salt, 15 mins", "value": "statistically significant enhancement"}, {"measurement": "fluorescence during time-lapse imaging", "setting": "MDA-MB-231 cells [7]; 500 μM Angeli's salt, images every 1 min for 20 mins", "value": "gradual increase in the fluorescence"}, {"measurement": "fluorescence turn-on response in cells", "setting": "MDA-MB-231 cells [7]; Angeli's salt 250 μM to 1000 μM, after 15 mins", "value": "dose-dependent fluorescence turn-on response"}, {"measurement": "cytotoxicity (MTT) versus DMSO control", "setting": "MDA-MB-231 cells [8]; 4 μM, 3, 6, and 24 hours, n=3", "value": "No time point has significant difference from the DMSO control"}, {"measurement": "cytotoxicity (MTT)", "setting": "MDA-MB-231 cells [8]; 10 μM probe, 3, 6, and 24 h", "value": "Cytotoxicity at any time point was not observe"}]}]}
